For 35 molecules, EC50 results are on record in patent US8772276B2, “Alkyne benzotriazole derivatives” (Merck Sharp & Dohme Corp., priority 2011, dated 2014).

The assay has as its target T1, recombinant human mGluR2 (Homo sapiens, UniProt Q14416).
T1 construct: expressed in transfected cells
In words: FLIPR Ca2+ mobilization assay, mGluR2 potentiation. Type of assay: cell-based. The following applies: CHO dhfr- cells expressing human mGluR2 and Gα16, EC20 concentration of glutamate (900 nM). How it is done: Potencies are determined as follows. The compounds of the present invention may be tested in a fluorescence laser imaging plate reader (FLIPR) based assay. This assay is a common functional assay to monitor Ca^2+ mobilization in whole cells expressing recombinant receptor coupled with a promiscuous G-protein. CHO dhfr-cells stably expressing recombinant human mGluR2 and Gα16 loaded with Fluo-4 AM (Invitrogen, Carlsbad Calif.) are treated with varying concentrations of compounds and the Ca^2+ response is monitored on a FLIPR384 (Molecular Devices, Sunnydale Calif.) for agonist activity. The potentiation response is monitored after a subsequent addition of an EC20 concentration of glutamate (900 nM). The maximum calcium response at each concentration of compound for agonism or potentiation are plotted as dose responses curves fitted with a four parameters logistic equation giving EC50 and Hill coefficient using the iterative non linear curve fitting software program.
A general note: A change in cytosolic calcium serves as a functional read-out for many receptors and channels.

The EC50 is the concentration needed to bring the measured effect to its halfway point.

T1 sequence (Q14416 19-872): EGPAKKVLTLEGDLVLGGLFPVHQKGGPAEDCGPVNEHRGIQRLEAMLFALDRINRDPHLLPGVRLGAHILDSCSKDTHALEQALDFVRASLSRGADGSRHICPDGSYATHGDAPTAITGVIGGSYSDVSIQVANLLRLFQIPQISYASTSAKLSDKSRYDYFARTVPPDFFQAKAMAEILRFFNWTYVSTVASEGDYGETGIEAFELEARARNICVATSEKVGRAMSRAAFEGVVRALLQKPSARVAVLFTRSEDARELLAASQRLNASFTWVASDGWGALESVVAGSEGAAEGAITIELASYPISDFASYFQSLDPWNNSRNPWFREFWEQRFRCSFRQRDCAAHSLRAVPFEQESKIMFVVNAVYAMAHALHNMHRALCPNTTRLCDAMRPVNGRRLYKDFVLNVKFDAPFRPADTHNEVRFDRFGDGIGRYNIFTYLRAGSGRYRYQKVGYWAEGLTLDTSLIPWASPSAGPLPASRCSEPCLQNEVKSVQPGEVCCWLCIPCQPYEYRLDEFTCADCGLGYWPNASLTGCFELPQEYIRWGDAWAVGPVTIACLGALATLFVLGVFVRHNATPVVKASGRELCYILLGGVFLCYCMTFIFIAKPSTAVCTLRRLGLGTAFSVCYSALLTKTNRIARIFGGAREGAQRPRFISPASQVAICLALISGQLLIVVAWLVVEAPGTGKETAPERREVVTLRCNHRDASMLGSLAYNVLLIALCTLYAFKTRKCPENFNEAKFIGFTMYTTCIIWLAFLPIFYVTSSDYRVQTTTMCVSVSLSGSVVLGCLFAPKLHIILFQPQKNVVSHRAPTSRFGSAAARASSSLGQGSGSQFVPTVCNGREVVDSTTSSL

Consider `CC(C)(C)Cn1nnc2c(Br)c(C#CC3CCN(C(=O)OC(C)(C)C)CC3)ccc21` [Example 1, tert-Butyl 4-{[4-bromo-1-(2,2-dimethylpropyl)-1H-benzotriazol-5-yl]ethynyl}piperidine-1-carboxylate], for which the EC50 was found to be 100 nM.

Take `CC(C)(C)Cn1nnc2c(Br)c(C#CC3CCNCC3)ccc21` [Example 2, 4-bromo-1-(2,2-dimethylpropyl)-5-(piperidin-4-ylethynyl)-1H-benzotriazole]: the EC50 stood at 2710 nM.

For `CC(C)(C)OC(=O)N1CCC(F)(C#Cc2ccc3c(nnn3CC3CC3)c2Br)CC1` [Example 3], the EC50 turned out to be 414 nM.

Regarding `FC1(C#Cc2ccc3c(nnn3CC3CC3)c2Br)CCNCC1` [Example 4, 4-bromo-1-(cyclopropylmethyl)-5-[(4-fluoropiperidin-4-yl)ethynyl]-1H-benzotriazole], the concentration for a half-maximal effect (EC50) is 1220 nM.

As for `CC(C)(C)Cn1nnc2c(Br)c(C#CC3CCN(CC(F)(F)F)CC3)ccc21` [Example 5, 4-bromo-1-(2,2-dimethylpropyl)-5-{[1-(2,2,2-trifluoroethyl)piperidin-4-yl]ethynyl}-1H-benzotriazole], the EC50 amounted to 123 nM.

For `Cc1ccncc1C#Cc1ccc2c(nnn2CC2CC2)c1Cl` [Example 6, 4-Chloro-1-(cyclopropylmethyl)-5-[(4-methylpyridin-3-yl)ethynyl]-1H-benzotriazole], the EC50 was determined as 50 nM.

With `Clc1c(C#Cc2cccnc2)ccc2c1nnn2CC1CC1` [Example 7, 4-chloro-1-(cyclopropylmethyl)-5-(pyridin-3-ylethynyl)-1H-benzotriazole], the 50% effective concentration (EC50) came out at 34 nM.

On to `Clc1c(C#Cc2ccncc2)ccc2c1nnn2CC1CC1` [Example 8, 4-chloro-1-(cyclopropylmethyl)-5-(pyridin-4-ylethynyl)-1H-benzotriazole], for which the 50% effective concentration (EC50) was 64 nM.

`Clc1c(C#Cc2ccccn2)ccc2c1nnn2CC1CC1` [Example 9, 4-chloro-1-(cyclopropylmethyl)-5-(pyridin-2-ylethynyl)-1H-benzotriazole]: the 50% effective concentration (EC50) worked out at 85 nM.

Regarding `Clc1c(C#Cc2cnccn2)ccc2c1nnn2CC1CC1` [Example 10, 4-chloro-1-(cyclopropylmethyl)-5-(pyrazin-2-ylethynyl)-1H-benzotriazole], the EC50 was found to be 80 nM.

As to `Clc1c(C#Cc2ccnnc2)ccc2c1nnn2CC1CC1` [Example 11, 4-chloro-1-(cyclopropylmethyl)-5-(pyridazin-4-ylethynyl)-1H-benzotriazole], the EC50 turned out to be 203 nM.

As to `OCCC#Cc1ccc2c(nnn2CC2CC2)c1Cl` [Example 12, 4-[4-chloro-1-(cyclopropylmethyl)-1H-benzotriazol-5-yl]but-3-yn-1-ol], the half-maximal effective concentration (EC50) stood at 388 nM.

Regarding `OCC#Cc1ccc2c(nnn2CC2CC2)c1Cl` [Example 13, 3-[4-chloro-1-(cyclopropylmethyl)-1H-benzotriazol-5-yl]prop-2-yn-1-ol], the EC50 stood at 576 nM.

As for `OCCCC#Cc1ccc2c(nnn2CC2CC2)c1Cl` [Example 14, 5-[4-chloro-1-(cyclopropylmethyl)-1H-benzotriazol-5-yl]pent-4-yn-1-ol], the 50% effective concentration (EC50) was 180 nM.

Consider `O=Cc1cncc(C#Cc2ccc3c(nnn3CC3CC3)c2Cl)c1` [Example 15, 5-{[4-chloro-1-(cyclopropylmethyl)-1H-benzotriazol-5-yl]ethynyl}pyridine-3-carbaldehyde], for which the EC50 was determined as 56 nM.

As to `Cc1ncccc1C#Cc1ccc2c(nnn2CC2CC2)c1Cl` [Example 16, 4-chloro-1-(cyclopropylmethyl)-5-[(2-methylpyridin-3-yl)ethynyl]-1H-benzotriazole], the EC50 is 50 nM.

In the case of `Cc1ccc(C#Cc2ccc3c(nnn3CC3CC3)c2Cl)cn1` [Example 17, 4-chloro-1-(cyclopropylmethyl)-5-[(6-methylpyridin-3-yl)ethynyl]-1H-benzotriazole], the 50% effective concentration (EC50) was found to be 140 nM.

Take `Cc1cncc(C#Cc2ccc3c(nnn3CC3CC3)c2Cl)c1` [Example 18, 4-chloro-1-(cyclopropylmethyl)-5-[(5-methylpyridin-3-yl)ethynyl]-1H-benzotriazole]: the concentration giving a half-maximal response (EC50) was 57 nM.

Consider `Clc1cncc(C#Cc2ccc3c(nnn3CC3CC3)c2Cl)c1` [Example 19, 4-chloro-5-[(5-chloropyridin-3-yl)ethynyl]-1-(cyclopropylmethyl)-1H-benzotriazole], for which the EC50 was determined as 292 nM.

Take `COc1cncc(C#Cc2ccc3c(nnn3CC3CC3)c2Cl)c1` [Example 20, 4-chloro-1-(cyclopropylmethyl)-5-[(5-methoxypyridin-3-yl)ethynyl]-1H-benzotriazole]: the concentration for a half-maximal effect (EC50) came out at 50 nM.

As for `Fc1cncc(C#Cc2ccc3c(nnn3CC3CC3)c2Cl)c1` [Example 21, 4-chloro-1-(cyclopropylmethyl)-5-[(5-fluoropyridin-3-yl)ethynyl]-1H-benzotriazole], the EC50 was found to be 76 nM.

Consider `OCc1cncc(C#Cc2ccc3c(nnn3CC3CC3)c2Cl)c1` [Example 22, (5-{[4-chloro-1-(cyclopropylmethyl)-1H-benzotriazol-5-yl]ethynyl}pyridin-3-yl)methanol], for which the concentration giving a half-maximal response (EC50) turned out to be 57 nM.

As for `Nc1cncc(C#Cc2ccc3c(nnn3CC3CC3)c2Cl)c1` [Example 23, 5-{[4-chloro-1-(cyclopropylmethyl)-1H-benzotriazol-5-yl]ethynyl}pyridin-3-amine], the concentration giving a half-maximal response (EC50) amounted to 98 nM.

For the molecule `NC(=O)c1cncc(C#Cc2ccc3c(nnn3CC3CC3)c2Cl)c1` [Example 24, 5-{[4-chloro-1-(cyclopropylmethyl)-1H-benzotriazol-5-yl]ethynyl}pyridine-3-carboxamide], the concentration for a half-maximal effect (EC50) was 42 nM.

With `Fc1cc(C#Cc2ccc3c(nnn3CC3CC3)c2Cl)ccn1` [Example 25, 4-chloro-1-(cyclopropylmethyl)-5-[(2-fluoropyridin-4-yl)ethynyl]-1H-benzotriazole], the EC50 was 77 nM.

As to `Clc1cc(C#Cc2ccc3c(nnn3CC3CC3)c2Cl)ccn1` [Example 26, 4-chloro-5-[(2-chloropyridin-4-yl)ethynyl]-1-(cyclopropylmethyl)-1H-benzotriazole], the concentration for a half-maximal effect (EC50) was determined as 299 nM.

With `Cc1cc(C#Cc2ccc3c(nnn3CC3CC3)c2Cl)ccn1` [Example 27, 4-chloro-1-(cyclopropylmethyl)-5-[(2-methylpyridin-4-yl)ethynyl]-1H-benzotriazole], the half-maximal effective concentration (EC50) came to 43 nM.

Take `COc1cc(C#Cc2ccc3c(nnn3CC3CC3)c2Cl)ccn1` [Example 28, 4-chloro-1-(cyclopropylmethyl)-5-[(2-methoxypyridin-4-yl)ethynyl]-1H-benzotriazole]: the EC50 was 227 nM.

Turning to `Nc1cc(C#Cc2ccc3c(nnn3CC3CC3)c2Cl)ccn1` [Example 29, 4-{[4-chloro-1-(cyclopropylmethyl)-1H-benzotriazol-5-yl]ethynyl}pyridin-2-amine], the EC50 stood at 31 nM.

Consider `CN1C(=O)CN(CC#Cc2ccc3c(nnn3CC3CC3)c2Cl)C1=O` [Example 30, 1-{3-[4-Chloro-1-(cyclopropylmethyl)-1H-benzotriazol-5-yl]prop-2-yn-1-yl}-3-methylimidazolidine-2,4-dione], for which the EC50 came to 415 nM.

Consider `C=CC#Cc1ccc2c(nnn2CC2CC2)c1Cl` [Example 31, 5-but-3-en-1-yn-1-yl-4-chloro-1-(cyclopropylmethyl)-1H-benzotriazole], for which the EC50 stood at 282 nM.

Consider `CN1C(=O)CN(CCCC#Cc2ccc3c(nnn3CC3CC3)c2Cl)C1=O` [Example 32, 1-{5-[4-chloro-1-(cyclopropylmethyl)-1H-benzotriazol-5-yl]pent-4-yn-1-yl}-3-methylimidazolidine-2,4-dione], for which the EC50 was determined as 153 nM.

Consider `FC(F)(F)c1c(C#Cc2cccnc2)ccc2c1nnn2CC1CC1` [Example 33, 1-(Cyclopropylmethyl)-5-(pyridin-3-ylethynyl)-4-(trifluoromethyl)-1H-benzotriazole], for which the EC50 stood at 4.8 nM.

For `FC(F)(F)c1c(C#Cc2ccccc2)ccc2c1nnn2CC1CC1` [Example 34, 1-(cyclopropylmethyl)-5-(phenylethynyl)-4-(trifluoromethyl)-1H-benzotriazole], the concentration for a half-maximal effect (EC50) was 34 nM.

As to `FC(F)(F)c1c(C#Cc2ccncc2)ccc2c1nnn2CC1CC1` [Example 35, 1-(cyclopropylmethyl)-5-(pyridin-4-ylethynyl)-4-(trifluoromethyl)-1H-benzotriazole], the EC50 worked out at 12 nM.
